This is an account of results in patent US11840548B2, “UV-curable phosphonium small molecules as antimicrobial coatings and surface active additives” (SCI RESOURCE PLATFORM INC., priority 2020, dated 2023).

Entries after “also recorded” stand apart in the source; their conditions may differ.

One data set concerns Arthrobacter sp. (IAI-3). The experiment in a line: large drop inoculum (LDI) test, Arthrobacter. Format: cell-based. Particulars: UV-cured coating on polystyrene plastic; after 3 hours in contact with the surface. The protocol:
To guarantee all inoculated cells enter into contact with the test surface, the samples with the droplet are subjected to a standardized 3 h drying period. The cells are then recovered, serially diluted, plated out onto tryptic soy agar, and enumerated to assess the extent of cell survival and thus antimicrobial efficacy of the test surfaces. Arthrobacter (IAI-3) and E. coli (ATCC strain 11229) were chosen as representative Gram-positive and Gram-negative bacterial strains.

Data set [1] in a line: advancing water contact angle measurement. It is filed as physicochemical. Conditions: UV-cured phosphonium coating on polystyrene; triplicate. The protocol:
Advancing water contact angle (θC) measurements were performed on the coated pieces to further probe the relationship between the structure of the phosphonium small molecules coated on the substrate and their macroscopic properties as coatings. Measurements for θC trend with charge density results (Table 1).
Thus, after the coating step, a pre-extrusion UV-cure process was introduced to immobilize the phosphoniums to the plastic bead surface. Extrusion of these pre-cured beads at 220° C. into a mold pre-heated to 100° C. yielded the tributylphosphonium-containing plastic PP-2, triphenylphosphonium-containing PP-3, (FIG. 8) and perfluoroalkylphosphonium-containing PP-4 as off-white coloured “dogbone” pieces. The discoloration was due to the amber or off-white natural coloring of the phosphoniums added to the melt, and not UV or heat exposure. The effect of incorporating each phosphonium at 1% was quantified by advancing WCA (Table 1). […] FIG. 1 is a schematic illustration showing a cross section of antimicrobial-enriched plastic with sub-surface phosphonium, which upon abrasion is exposed and available to combat microbial growth.

In data set [2] the test system is E. coli (ATCC strain 11229). The experiment in a line: large drop inoculum (LDI) test, E. coli. It is filed as cell-based. Particulars: UV-cured coating on polystyrene plastic; after 24 hours in contact with the surface. The text has this:
To guarantee all inoculated cells enter into contact with the test surface, […], serially diluted, plated out onto tryptic soy agar, and enumerated to assess the extent of cell survival and thus antimicrobial efficacy of the test surfaces. Arthrobacter (IAI-3) and E. coli (ATCC strain 11229) were chosen as representative Gram-positive and Gram-negative bacterial strains.
The efficacy of these materials against the representative strains of Gram-negative and Gram-positive bacteria lead us to probe the antimicrobial capability of these materials after being subject to abrasive processes, to determine whether tethered sub-surface phosphonium observed by XPS can translate to materials with antimicrobial properties after the surface has be abraded. The process of using an aqueous solution to wipe or rub away dirt or bacteria is one fundamental to sanitation,^50 and as such the solvent double rub protocol described in ASTM D5402^51 was chosen as a representative test of durability. Water was chosen as the solvent due to its ubiquity in cleaning solutions. The same extruded polypropylene samples subjected to the LDI were first rinsed with copious amounts of sterile distilled water, then vortexed for 5 minutes in saline to remove any bacterial debris from the initial test. After another rinse step, the pieces were subjected to 100 solvent double rubs on the tested side using a cotton cloth saturated with distilled water, the amount of force of each rub measured to be between 1000 g and 1600 g. After 100 double rubs, the pieces were rinsed, sterilized under UV light, and the abraded sides were subject to another loading of bacteria.

As to `C[P+](C)(C)CCCOc1ccc(C(=O)c2ccccc2)cc1.[Br-]` [phosphonium 1], the “reduction of viable Gram-positive Arthrobacter cells” value in the data set with Arthrobacter sp. (IAI-3) is “failing to reduce bacterial survivability; also recorded: lack of observed antimicrobial activity”. In addition, the “θc, advancing water contact angle” value in data set [1] is listed as 71.9 ± 5.1 deg. For the same molecule, the “reduction of viable Gram-negative E. coli cells” value in data set [2] is given as “failing to reduce bacterial survivability; also recorded: lack of observed antimicrobial activity”.

Take `CCCC[P+](CCCC)(CCCC)CCCOc1ccc(C(=O)c2ccccc2)cc1.[Br-]` [phosphonium 2]: the “reduction of viable Gram-positive Arthrobacter cells” value in the data set on Arthrobacter sp. (IAI-3) is “full reductions”. For the same molecule, the “θc, advancing water contact angle” value in data set [1] was determined as 36.4±11.0 deg. Besides, the “reduction of viable Gram-negative E. coli cells” value in data set [2] is listed as “full reductions”.

Take `O=C(c1ccccc1)c1ccc(OCCC[P+](c2ccccc2)(c2ccccc2)c2ccccc2)cc1.[Br-]` [phosphonium 3]: the “reduction of viable Gram-positive Arthrobacter cells” value with Arthrobacter sp. (IAI-3) was “full reductions”. Further, in data set [1], the “θc, advancing water contact angle” value is reported as 63.5±5.8 deg. In addition, the “reduction of viable Gram-negative E. coli cells” value in data set [2] is on record as “full reductions”.

Consider `O=C(c1ccccc1)c1ccc(OCCC[P+](CCC(F)(F)C(F)(F)C(F)(F)C(F)(F)C(F)(F)C(F)(F)F)(c2ccccc2)c2ccccc2)cc1.[Br-]` [phosphonium 4], for which the “reduction of viable Gram-positive Arthrobacter cells” value with Arthrobacter sp. (IAI-3) was “full reductions”. The “θc, advancing water contact angle” value in data set [1] was 68.0±2.0 deg. Besides, the “reduction of viable Gram-negative E. coli cells” value in data set [2] was “full reductions”.
